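Dose response: 5 concentrations. Exposure: 48 h. Format: 96-well plates. Endpoint: linear interpolation; highest concentration if not reached. TGI marks complete inhibition of growth.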
Legend:
Test in all cases: inhibition of tumour cell growth, NCI panel, 48 h
[1] = tested on: 786-0 renal
[2] = tested on: A498 renal
[3] = tested on: HCT-116 colon
[4] = tested on: HCT-15 colon
[5] = tested on: HL-60(TB) leukemia
[6] = tested on: HOP-62 NSCLC
[7] = tested on: HOP-92 NSCLC
[8] = tested on: KM12 colon
[9] = tested on: MCF7 breast
[10] = tested on: NCI-H226 lung
[11] = tested on: OVCAR-4 ovarian
[12] = tested on: OVCAR-8 ovarian
[13] = tested on: SF-295 CNS
[14] = tested on: SK-MEL-2 melanoma
[15] = tested on: SK-MEL-28 melanoma
[16] = tested on: SN12C renal
[17] = tested on: SW-620 colon
[18] = tested on: UACC-62 melanoma
[19] = tested on: CAKI-1 renal

| SMILES | TGI [1] [µM] | TGI [2] [µM] | TGI [3] [µM] | TGI [4] [µM] | TGI [5] [µM] | TGI [6] [µM] | TGI [7] [µM] | TGI [8] [µM] | TGI [9] [µM] | TGI [10] [µM] | TGI [11] [µM] | TGI [12] [µM] | TGI [13] [µM] | TGI [14] [µM] | TGI [15] [µM] | TGI [16] [µM] | TGI [17] [µM] | TGI [18] [µM] | TGI [19] [µM] |
| --- | --- | --- | --- | --- | --- | --- | --- | --- | --- | --- | --- | --- | --- | --- | --- | --- | --- | --- | --- |
| CC(=O)N(CCCCNC(=O)C(F)(F)F)CCCNC(=O)C(F)(F)F | > 100 | > 100 | > 100 | > 100 | > 100 | > 100 | > 100 | > 100 | > 100 | > 100 | > 100 | > 100 | > 100 | > 100 | > 100 | > 100 | > 100 | > 100 | – |
| COC(=O)[C@@H]1COC(C(C)(C)C)N1C(=O)C(c1ccccc1)c1ccccc1 (some centres not stated) | > 100 | > 100 | > 100 | > 100 | 83.4 | > 100 | > 100 | > 100 | > 100 | > 100 | > 100 | > 100 | > 100 | > 100 | > 100 | > 100 | > 100 | > 100 | > 100 |
| Cc1cc(-c2cscn2)c(O)c([N+](=O)[O-])c1 | > 100 | 99.7 | > 100 | > 100 | > 100 | > 100 | > 100 | – | > 100 | – | > 100 | > 100 | > 100 | > 100 | – | > 100 | > 100 | > 100 | > 100 |
| CC(NC(=O)OC(C)(C)C)C(=O)NC(Cc1ccccc1)C(=O)NCC(=O)Oc1c(Cl)c(Cl)c(Cl)c(Cl)c1Cl (configuration not stated) | 46.4 | 47.8 | 43.9 | – | 53.3 | 37.4 | 38.3 | > 100 | 89.6 | 43.5 | – | 43.9 | – | 73.1 | 71.1 | 30.4 | 47 | 50.4 | – |
| CCc1ccc(/C=C/C(=O)C2CN(CC)CCC2(O)/C=C/c2ccc(CC)cc2)cc1 (configuration not stated) | 3.22 | 23.1 | 3.25 | 8.27 | > 24.6 | 3.54 | 5.33 | 3.5 | 7.34 | 20.1 | 14.7 | 11.6 | 8.9 | 18.7 | 3.04 | 14.1 | 4.4 | 16.2 | 18.7 |
| O=C(O)c1nc2ccccc2nc1NCc1ccc(F)cc1 | > 100 | > 100 | > 100 | 42.8 | > 100 | > 100 | > 100 | > 100 | > 100 | > 100 | – | > 100 | > 100 | > 100 | > 100 | > 100 | > 100 | > 100 | > 100 |
| COc1ccc(C(=C2C(=O)N(c3ccccc3)C(=O)C2=C(C)C)c2ccc(OC)cc2)cc1 | 23.7 | 16 | > 51.1 | > 32.5 | 6.32 | > 66.2 | > 31.6 | > 54.4 | > 45.4 | > 54 | > 29.3 | > 32.1 | > 49 | > 42.3 | 20.7 | > 38.2 | > 100 | > 34.2 | 42 |
| C=C(CO)[C@H]1Oc2ccc(C(C)=O)cc2[C@@H]1O | > 100 | > 100 | > 100 | > 100 | > 100 | > 100 | – | > 100 | > 100 | > 100 | > 100 | > 100 | > 100 | > 100 | > 100 | > 100 | > 100 | > 100 | > 100 |
| COc1c(Br)cc(/C=C(\C#N)c2ccccn2)cc1Br | 25.6 | 9.57 | > 100 | > 100 | > 100 | 89.1 | – | > 100 | > 100 | > 100 | – | > 100 | > 100 | 41.8 | > 100 | > 100 | > 100 | 73.8 | > 100 |
| CCCCc1ccc(Nc2nc(Cl)c3ncn(C4CC(Oc5ccc(C)cc5)C(COc5ccc(C)cc5)O4)c3n2)cc1 (configuration not stated) | > 100 | > 100 | > 100 | > 100 | > 100 | > 100 | > 100 | > 100 | > 100 | > 100 | – | > 100 | > 100 | > 100 | – | > 100 | > 100 | > 100 | 30.9 |
| CNc1ncnc2c1cnn2CCCCO | > 100 | > 100 | > 100 | > 100 | > 100 | > 100 | > 100 | – | > 100 | > 100 | > 100 | – | > 100 | > 100 | > 100 | > 100 | > 100 | > 100 | > 100 |
| Cn1cnc2c1c(=O)n(CCNCCO)c(=O)n2C | > 100 | > 100 | > 100 | > 100 | > 100 | > 100 | > 100 | > 100 | > 100 | > 100 | > 100 | > 100 | > 100 | > 100 | > 100 | > 100 | > 100 | > 100 | > 100 |
| O=C(NCCCNCCCCNCCCNC(=O)c1cc(-c2ccccc2)nc2ccccc12)c1cc(-c2ccccc2)nc2ccccc12 | 3 | 47.5 | > 100 | 44.1 | 3.8 | 11.2 | 4.36 | – | 3.78 | – | > 24.8 | – | 14.4 | – | 3.3 | 7.88 | 13.1 | 6.77 | 36.3 |
